Results taken from patent publication US20260021120A1, “METHOD FOR TREATING INFLAMMATORY SKIN DISEASE USING 6-DIAZO-5-OXO-L-NORLEUCINE” (Dermato Bio Inc., priority 2019, published 2026).
Entries after “also recorded” stand apart in the source; their conditions may differ.

Key:
NFκB [1] = assay: TNF-α-induced NFκB activation (luciferase activity) in fibroblasts (NIH3T3/NFκB-luc cells); assay type: cell-based; conditions: 25 ng/ml TNF-α co-treated 8 hours, 100 μM DON, 5 μM Bay11-7082, vs TNF-α only-treated group
Description: (§1) This example was intended to indirectly confirm the inhibition of chemokine secretion and histone acetylation by confirming the activity of NFκB in skin cells with a dermatitis lesion, and confirming whether the accelerated NFκB activity was inhibited.
(§2) NIH3T3/NFκB-luc cells, which is a cell line capable of confirming the activity of an NFκB transcription factor through luciferase activity were treated with 25 ng/ml of TNF-α to activate an NFκB signal, and as a positive control, 5 μM of a TNF-α inhibitor, Bay11-7082 (Bay), causing an NF-κB signaling inhibitory action was used. NIH3T3/NFκB-luc cells were dispensed at […] in a 96-well plate, and stabilized in an incubator for 24 hours. To confirm the DON efficacy on NFκB, TNF-α and 100 μM DON were co-treated for 8 hours and then lysed, thereby obtaining a cell enzyme solution, and then the cell enzyme solution was reacted with luciferin, and luciferase activity was measured using a luminometer (FIGS. 3 and 4). The difference in the number of cells between treatment groups was corrected with the resulting values of luciferase activity using protein quantification.

NFκB [2] = assay: TNF-α-induced NFκB activation (luciferase activity) in keratinocytes; assay type: cell-based; conditions: 25 ng/ml TNF-α co-treated 8 hours, 100 μM DON, 5 μM Bay11-7082, vs TNF-α only-treated group
Description: as §1, §2

TPA-induced inflammation = TPA-induced inflammation inhibiting experiment (mouse ear); assay type: in vivo, C57BL/6 female mice; conditions: for visual skin condition of the ear area: after 5 days of application, compared to a negative control (FIG. 6); for number of mast cells / penetration of mast cells into lesion: toluidine blue staining, 200× image, DEX 3 mg, CRI 0.6 mg, DON 0.1 mg on ears, vs TPA positive control
Description: For an experiment of inducing and inhibiting inflammation using 12-O-tetradecanoylphorbol-13-acetate (TPA, Sigma), 14 week-old C57BL/6 female mice were purchased from NARA Biotech (Korea) and used. The purchased mice were acclimated for 7 days, and healthy animals were selected and tested. During the experimental period, the mice were raised while maintaining the environment at a temperature of 21 to 25° C., a relative humidity of 45 to 65% and a lighting time of 12 hours, and freely fed feed and drinking water.
First, the acclimated mice with similar characteristics such as a body weight and size were divided into five experimental groups of 3, and separately raised to confirm an anti-inflammation level. Inflammation was induced by first applying 1.0 ug of TPA to each of both ears of a mouse, and after 1 hour, a therapeutic material was applied, which was continued for 5 days. A mouse to which only acetone (Merck), which is a TPA solvent, was applied was set as a negative control (Vehicle), a mouse to which 1.0 ug of TPA dissolved in acetone was applied was set as a positive control and evaluated, and after TPA was applied, mice to which each of 3 mg of dexamethasone (DEX, Sigma), 0.6 mg of crisaborole (CRI, ChemScene) and 0.1 mg of 6-diazo-5-oxo-L-norleucine (DON, Sigma) was applied were set as experimental groups. After applying each material for 5 days by the above-described method, the weight, ear thickness and ear weight of each mouse were measured, and ear tissue was collected and histologically analyzed by hematoxylin & eosin (H&E) staining and toluidine blue staining.
FIG. 8 is a graph obtained by scoring visually evaluated ear lesions, divided into erythema, scaling and a thickness, and in the graph, the severity of symptoms was rated on a 5-point scale (0=none; 1=slight; 2=moderate; 3=marked; and 4=very marked).
Afterward, to confirm the anti-inflammatory effect of DON, the mouse's ear thickness and ear weight were measured and quantified (FIGS. 9A and 9B), and, based on the histological analysis result obtained by toluidine blue staining capable of confirming mast cells, the number of mast cells was measured by comparing three tissue samples per group using a 200× image (FIG. 9C). […] Therefore, it was confirmed that DON can alleviate pruritus symptoms by inhibiting the histamine secretion not only from epithelial cells but also from mast cells, and can also prevent severe dermatitis caused by secondary infection.

[3] = tested on: oxazolone-induced atopic dermatitis; assay: Oxazolone-induced atopic dermatitis inhibiting experiment (mouse ear); assay type: in vivo, female BALB/c mice
Description: Using five 8-week-old female BALB/c mice per group, an effect of inhibiting oxazolone-induced atopic dermatitis was tested. In the experiment, dermatitis induced on the car of each mouse was treated with a therapeutic candidate, and it was attempted to confirm an effect depending on an administration route of a therapeutic agent through percutaneous application or subcutaneous injection. First, to induce atopic dermatitis in all groups excluding the negative control, 0.35 mg of 4-ethoxymethylene-2-phenyl-2-oxazolin-5-one (oxazolone, OXA) was mixed with 30 μl of acetone, and sensitization was preceded on each of the both ears with the 1% mixture. The same amount of a solvent without OXA was applied for the negative control (vehicle). From 7 days after the initial application of OXA, OXA (0.5%) was additionally applied every two days to induce dermatitis. For treatment groups, dexamethasone (DEX), tacrolimus (TAC), cyclosporine (CYCL), crisaborole (CRI) and DON were used. For percutaneous application, each time OXA was applied, after 1 hour, each of the therapeutic candidates was treated on both ears, and in the administration test via subcutaneous injection, injection was performed 1 hour after OXA treatment, but intermittently performed every two days. As an excipient used in the subcutaneous injection, filtered distilled water was used, and the control was also administered the same amount of sterile water. Finally, on day 22 after the initial OXA application, the experiment was terminated, and the mice were sacrificed and autopsied, ear tissue was collected, and to confirm the morphological structure of the tissue, H&E staining was performed, and to count the number of the infiltrated mast cells, toluidine blue staining was performed.
FIGS. 14A and 14B were obtained by quantifying the total number of cells and the number of mast cells, which are infiltrated into the dermis, from the staining results. (a) The cell numbers were compared using the total number of infiltrated cells in 200 square micrometers (μm^2), and (b) the mast cells infiltrated into the same area were converted into percentage (%) with respect to the total cell number.

IMQ-induced psoriasis = IMQ-induced psoriasis inhibiting experiment (mouse back); assay type: in vivo, female C57/BL6 mice; conditions: 0.05% DON, 100 μl on back
Description: For a psoriasis inhibition experiment using imiquimod (IMQ, Tokyo Chemical Industry, 10747-100 mg), as an experimental animal, female C57/BL6 mice (n=5) were used. First, to induce psoriasis, sensitization was preceded by evenly applying 4 mg IMQ to the completely shaved back of each of the mice in all groups except a negative control at a volume of 100 μl. For the negative control, the same amount of a solvent without IMQ was applied. Psoriasis was induced by applying IMQ a total of five times at 24-hour intervals for 5 days, and for treatment groups, the same site was treated (applied) with 0.05% dexamethasone (DEX) ([…], 100 μl) or 0.05% DON (0.5 mg/ml, 100 μl) dissolved in ethanol one hour after IMQ treatment.
The severity of scaling (FIG. 20) visually evaluated at a lesion site was classified and evaluated by rating, and the severity of the symptom was rated on a 5-point scale (0=none; 1=slight; 2=moderate; 3=marked; and 4=very marked), and plotted on a graph.

[4] = ear lesion, DON 0.1 mg, 5 days (FIG. 8)

Compound: Cc1ccc(S(=O)(=O)/C=C/C#N)cc1 [Bay11-7082, reference compound]
- NFκB activity by TNF-α (luciferase activity) (NFκB [1]): decreased
- NFκB activity by TNF-α (luciferase activity) (NFκB [2]): decreased

Compound: N#Cc1ccc(Oc2ccc3c(c2)COB3O)cc1 [CRI, crisaborole, reference compound]
- visual skin condition of the ear area (TPA-induced inflammation): showed erythema and scaling
- number of mast cells / penetration of mast cells into lesion (TPA-induced inflammation; after 5 days): significantly decreased

Compound: [N-]=[N+]=CC(=O)CC[C@H](N)C(=O)O [DON, 6-diazo-5-oxo-L-norleucine]
- thickened skin tissue of the epidermis and dermis (histological analysis) (TPA-induced inflammation; H&E, after 5 days, DON 0.1 mg on ears (FIG. 7)): becomes thinner
- thickness of the epithelium (TPA-induced inflammation; TPA-induced inflammation, inflammatory lesion treated with DON (FIG. 1)): significantly reduced
- visual skin condition of the ear area (TPA-induced inflammation): showed erythema and scaling
- degree of erythema (visual score, 5-point scale) (TPA-induced inflammation; [4]): significantly reduced
- degree of scaling (visual score, 5-point scale) (TPA-induced inflammation; [4]): significantly reduced
- degree of thickness (visual score, 5-point scale) (TPA-induced inflammation; [4]): significantly reduced
- number of mast cells / penetration of mast cells into lesion (TPA-induced inflammation; after 5 days): significantly decreased; also recorded: weakened
- weight (g) of ear tissue ([3]; 0.1% (0.0272 mg), ear, percutaneous application (FIG. 12A)): significantly decreased
- thickness (mm) of ear tissue ([3]; 0.1% (0.0272 mg), ear, percutaneous application (FIG. 12B)): significantly decreased
- visual symptoms of atopic dermatitis (tissue swelling, eczema, deformation of the ear tissue) ([3]; 0.1% (0.0272 mg), ear, percutaneous application, vs OXA group (FIG. 11)): significant skin improvement
- number of immune cells introduced into the dermis ([3]; histological analysis, total infiltrated cells in 200 μm^2): significantly reduces; also recorded: small
- thickness of the epithelium ([3]; oxazolone-induced inflammation, inflammatory lesion treated with DON (FIG. 2)): significantly reduced
- number of mast cells / penetration of mast cells into lesion ([3]; toluidine blue staining, dermis of ear, day 22): significantly reduces; also recorded: weakened
- changes in the epithelium of skin ([3]; visual and histological analysis): significantly reduces
- skin thickness at the lesion (IMQ-induced psoriasis; 5 days (FIG. 21)): significantly reduced
- severity of scaling (visual score, 5-point scale) (IMQ-induced psoriasis; 5 days, vs IMQ positive control (FIG. 20)): significantly decreased
- NFκB activity by TNF-α (luciferase activity) (NFκB [1]): reduced; also recorded: inhibited
- NFκB activity by TNF-α (luciferase activity) (NFκB [2]): reduced; also recorded: inhibited
